Measured values taken from patent US9416111B2, “Substituted diazine and triazine spleen tyrosine kinease (Syk) inhibitors” (Merck Sharp & Dohme Corp., priority 2012, dated 2016).
Read-outs that look alike come from different tables or passages of the source.

Target: T1, recombinant human GST-SYK (Homo sapiens, UniProt P43405)
T1 construct: purchased Carna Biosciences 08-176
Assay: Homogeneous Time-Resolved Fluorescence (HTRF) assay for the recombinant human Syk enzyme
Type: biochemical
Settings: GST-hSYK 5 pM, ATP 25 μM
Experimental: Homogeneous Time-Resolved Fluorescence (HTRF) Assay for the Recombinant Human Syk Enzyme
A recombinant GST-hSYK fusion protein was used to measure potency of compounds to inhibit human Syk activity. The recombinant human GST-SYK (Carna Biosciences #08-176) (5 pM final concentration) was incubated with various concentrations of the inhibitor diluted in DMSO (0.1% final concentration) for 10 minutes at room temperature in 15 mM Tris-HCl (pH 7.5), 0.01% tween 20, 2 mM DTT in 384 well plate format. To initiate the reaction the biotinylated substrate peptide (250 nM final concentration) that contains the phosphorylation site for Syk was added with magnesium (5 mM final concentration) and ATP (25 μM final concentration). Final volume of the reaction was 10 μL. Phosphorylation of the peptide was allowed to proceed for 45′ at room temperature. To quench the reaction and detect the phosphorylated product, 2 nM of a Europium-anti-phosphotyrosine antibody (Perkin Elmer #AD0161) and 70 nM SA-APC (Perkin-Elmer #CR130-100) were added together in 15 mM Tris pH 7.5, 40 mM EDTA, 0.01% tween 20. Final volume of the quenching solution was 10 μL. The resulting HTRF signal was measured after 30 minutes on an EnVision (Perkin-Elmer) reader using a time-resolved fluorescence protocol.

[1] = IC50 rated in classes, read-out: rhSYK Activity

Row | SMILES | IC50 [1] [nM] | IC50 (values in text, read-out: IC50) [nM]
1 | Cc1cc(Nc2nccc(C(F)F)n2)cc(-c2cnc([C@@H](C)[C@H]3CC[C@H](C(=O)O)CC3)nc2)c1 (single isomer, unassigned) [Example 6.1, trans-4-{1-[5-(3-{[4-(difluoromethyl)pyrimidin-2-yl]amino}-5-methylphenyl)pyrimidin-2-yl]ethyl}cyclohexanecarboxylic acid] | < 100 | 0.6
2 | Cc1cc(Nc2nccc(C(F)(F)F)n2)cc(-c2cnc(NCC(C)O)nc2)c1 (stereo not drawn) [Example 2.60, 1-{[5-(3-methyl-5-{[4-(trifluoromethyl)pyrimidin-2-yl]amino}phenyl)pyrimidin-2-yl]amino}propan-2-ol] | < 100 | –
3 | CCCOC1CCCN(c2ncc(-c3cc(C)cc(Nc4nccc(C(F)(F)F)n4)c3)cn2)C1 (stereo not drawn) [Example 2.53, N-{3-methyl-5-[2-(3-propoxypiperidin-1-yl)pyrimidin-5-yl]phenyl}-4-(trifluoromethyl)pyrimidin-2-amine] | 100 to 1000 | –
4 | COCC1CCCCN1c1ncc(-c2cc(C)cc(Nc3nccc(C(F)(F)F)n3)c2)cn1 (stereo not drawn) [Example 2.49, N-(3-{2-[2-(methoxymethyl)piperidin-1-yl]pyrimidin-5-yl}-5-methylphenyl)-4-(trifluoromethyl)pyrimidin-2-amine] | 100 to 1000 | –
5 | Cc1cc(Nc2nccc(C(F)(F)F)n2)cc(-c2cnc(NCc3cn(C)cn3)nc2)c1 [Example 2.63, N-[3-methyl-5-(2-{[(1-methyl-1H-imidazol-4-yl)methyl]amino}pyrimidin-5-yl)phenyl]-4-(trifluoromethyl)pyrimidin-2-amine] | < 100 | –
6 | Cc1cc(Nc2nccc(C(F)(F)F)n2)cc(-c2cnc(N3CCC(=O)N(C)CC3)nc2)c1 [Example 2.24, 4-methyl-1-[5-(3-methyl-5-{[4-(trifluoromethyl)pyrimidin-2-yl]amino}phenyl)pyrimidin-2-yl]-1,4-diazepan-5-one] | < 100 | –
7 | Cc1cc(Nc2nccc(C(F)F)n2)cc(-c2cnc([C@@H](C)[C@H]3CC[C@H](C(=O)O)CC3)nc2)c1 (single isomer, unassigned) [Example 6.2, trans-4-{1-[5-(3-{[4-(difluoromethyl)pyrimidin-2-yl]amino}-5-methylphenyl)pyrimidin-2-yl]ethyl}cyclohexanecarboxylic acid] | < 100 | 0.3
8 | Cc1cc(Nc2nccc(C(F)(F)F)n2)cc(-c2cnc(NCC(N)=O)nc2)c1 [Example 2.37, N~2~-[5-(3-methyl-5-{[4-(trifluoromethyl)pyrimidin-2-yl]amino}phenyl)pyrimidin-2-yl]glycinamide] | < 100 | –
9 | CCOC(=O)CCc1ccc(-c2cc(C)cc(Nc3nccc(C4CC4)n3)c2)nn1 [Example 3.42, ethyl 3-(6-{3-[(4-cyclopropylpyrimidin-2-yl)amino]-5-methylphenyl}pyridazin-3-yl)propanoate] | 100 to 1000 | –
10 | Cc1cc(Nc2nccc(C(F)(F)F)n2)cc(-c2cnc(NCCCC(=O)O)nc2)c1 [Example 2.11, 4-{[5-(3-methyl-5-{[4-(trifluoromethyl)pyrimidin-2-yl]amino}phenyl)pyrimidin-2-yl]amino}butanoic acid] | < 100 | –
11 | Cc1cc(Nc2nccc(C(F)(F)F)n2)cc(-c2cnc(CCC(=O)O)cn2)c1 [Example 3.8, 3-[5-(3-methyl-5-{[4-(trifluoromethyl)pyrimidin-2-yl]amino}phenyl)pyrazin-2-yl]propanoic acid] | < 100 | –
12 | Cc1cc(Nc2nccc(C(F)(F)F)n2)cc(-c2cnc(N3CCOC(CCO)C3)nc2)c1 (stereo not drawn) [Example 2.23, 2-{4-[5-(3-methyl-5-{[4-(trifluoromethyl)pyrimidin-2-yl]amino}phenyl)pyrimidin-2-yl]morpholin-2-yl}ethanol] | 100 to 1000 | –
13 | CC(=O)NCCCNc1ncc(-c2cc(C)cc(Nc3nccc(C(F)(F)F)n3)c2)cn1 [Example 2.71, N-(3-{[5-(3-methyl-5-{[4-(trifluoromethyl)pyrimidin-2-yl]amino}phenyl)pyrimidin-2-yl]amino}propyl)acetamide] | < 100 | –
14 | Cc1cc(Nc2nccc(C(F)(F)F)n2)cc(-c2cnc(N3CC[C@H]3C(=O)O)nc2)c1 [Example 2.6, (2S)-l-[5-(3-methyl-5-{[4-(trifluoromethyl)pyrimidin-2-yl]amino}phenyl)pyrimidin-2-yl]azetidine-2-carboxylic acid] | < 100 | –
15 | COCC1CN(c2ncc(-c3cc(C)cc(Nc4nccc(C(F)(F)F)n4)c3)cn2)CCO1 (stereo not drawn) [Example 2.25, N-(3-{2-[2-(methoxymethyl)morpholin-4-yl]pyrimidin-5-yl}-5-methylphenyl)-4-(trifluoromethyl)pyrimidin-2-amine] | 100 to 1000 | –
16 | CCOC(=O)CCc1ccc(-c2cccc(Nc3nccc(C(F)(F)F)n3)c2)nn1 [Example 3.24, ethyl 3-[6-(3-{[4-(trifluoromethyl)pyrimidin-2-yl]amino}phenyl)pyridazin-3-yl]propanoate] | 1000 to 10000 | –

Row | SMILES | IC50 [1] [nM] | IC50 (values in text, read-out: IC50) [nM]
17 | CCOC(=O)CCc1cc(-c2cc(C)cc(Nc3nccc(C)n3)c2)ncn1 [Example 3.51, ethyl 3-(6-{3-methyl-5-[(4-methylpyrimidin-2-yl)amino]phenyl}pyrimidin-4-yl)propanoate] | 1000 to 10000 | –
18 | Cc1cc(Nc2nccc(C(F)(F)F)n2)cc(-c2cnc(N3CCC(C)(O)C3)nc2)c1 (stereo not drawn) [Example 2.28, 3-methyl-1-[5-(3-methyl-5-{[4-(trifluoromethyl)pyrimidin-2-yl]amino}phenyl)pyrimidin-2-yl]pyrrolidin-3-ol] | < 100 | –
19 | CCOC(=O)CCc1ccc(-c2cc(C)cc(Nc3nccc(C(F)(F)F)n3)c2)nn1 [Example 3.27, ethyl 3-[6-(3-methyl-5-{[4-(trifluoromethyl)pyrimidin-2-yl]amino}phenyl)pyridazin-3-yl]propanoate] | 100 to 1000 | –
20 | Cc1cc(Nc2nccc(C)n2)cc(-c2cc(CCC(=O)O)ncn2)c1 [Example 3.52, 3-(6-{3-methyl-5-[(4-methylpyrimidin-2-yl)amino]phenyl}pyrimidin-4-yl)propanoic acid] | 1000 to 10000 | –
21 | CCOC(=O)CCc1cc(-c2cc(C)cc(Nc3nccc(C(F)(F)F)n3)c2)ncn1 [Example 3.49, ethyl 3-[6-(3-methyl-5-{[4-(trifluoromethyl)pyrimidin-2-yl]amino}phenyl)pyrimidin-4-yl]propanoate] | 100 to 1000 | –
22 | Cc1cc(Nc2nccc(C(F)(F)F)n2)cc(-c2cnc(N3CCNC(=O)C3)nc2)c1 [Example 2.46, 4-[5-(3-methyl-5-{[4-(trifluoromethyl)pyrimidin-2-yl]amino}phenyl)pyrimidin-2-yl]piperazin-2-one] | < 100 | –
23 | Cc1cc(Nc2nccc(C(F)(F)F)n2)cc(-c2cnc(NCC(=O)O)nc2)c1 [Example 2.12, N-[5-(3-methyl-5-{[4-(trifluoromethyl)pyrimidin-2-yl]amino}phenyl)pyrimidin-2-yl]glycine] | < 100 | –
24 | Cc1cc(Nc2nccc(C(F)(F)F)n2)cc(-c2cnc(NC3CCOC3)nc2)c1 (stereo not drawn) [Example 2.18, N-{3-methyl-5-[2-(tetrahydrofuran-3-ylamino)pyrimidin-5-yl]phenyl}-4-(trifluoromethyl)pyrimidin-2-amine] | < 100 | –
25 | Cc1cc(Nc2nccc(C(F)(F)F)n2)cc(-c2cnc(NCc3cnn(C)c3)nc2)c1 [Example 2.17, N-[3-methyl-5-(2-{[(1-methyl-1H-pyrazol-4-yl)methyl]amino}pyrimidin-5-yl)phenyl]-4-(trifluoromethyl)pyrimidin-2-amine] | < 100 | –
26 | Cc1cc(Nc2nccc(C(F)(F)F)n2)cc(-c2cnc(NC(C)(CO)CO)nc2)c1 [Example 2.1, 2-methyl-2-{[5-(3-methyl-5-{[4-(trifluoromethyl)pyrimidin-2-yl]amino}phenyl)pyrimidin-2-yl]amino}propane-1,3-diol] | < 100 | 17.2
27 | Cc1cc(Nc2nccc(C(F)F)n2)cc(-c2cnc([C@H](C)[C@H]3CC[C@H](C(=O)O)[C@H](C)C3)nc2)c1 (single isomer, unassigned) [Example 7.7] | < 100 | 1.2
28 | Cc1cc(Nc2nccc(C(F)(F)F)n2)cc(-c2cnc(NCC(=O)N(C)C)nc2)c1 [Example 2.64, N,N-dimethyl-N~2~-[5-(3-methyl-5-{[4-(trifluoromethyl)pyrimidin-2-yl]amino}phenyl)pyrimidin-2-yl]glycinamide] | < 100 | –
29 | COc1ccnc(Nc2cc(C)cc(-c3cnc(CCC(=O)O)nc3)c2)n1 [Example 1.5, 3-(5-{3-[(4-methoxypyrimidin-2-yl)amino]-5-methylphenyl}pyrimidin-2-yl)propanoic acid] | < 100 | –
30 | Cc1cc(Nc2nccc(C3CC3)n2)cc(-c2cnc(CCC(=O)O)nc2)c1 [Example 3.1, 3-(5-{3-[(4-cyclopropylpyrimidin-2-yl)amino]-5-methylphenyl}pyrimidin-2-yl)propanoic acid] | – | 51.6
31 | Cc1cc(Nc2nccc(C(F)(F)F)n2)cc(-c2cnc(NC3(C(=O)O)CCC3)nc2)c1 [Example 2.4, l-{[5-(3-methyl-5-{[4-(trifluoromethyl)pyrimidin-2-yl]amino}phenyl)pyrimidin-2-yl]amino}cyclobutanecarboxylic acid] | < 100 | –
32 | CNC(=O)CNc1ncc(-c2cc(C)cc(Nc3nccc(C(F)(F)F)n3)c2)cn1 [Example 2.44, N-methyl-N~2~-[5-(3-methyl-5-{[4-(trifluoromethyl)pyrimidin-2-yl]amino}phenyl)pyrimidin-2-yl]glycinamide] | < 100 | –
